Reference: ChEMBL document CHEMBL1201862, “PubChem BioAssay data set” (2004)
Where “and” joins values, the source holds several entries; their conditions need not be identical. Equal entries are not always repeated. Calls of active or inactive are those of the source.

How the values were obtained:
Vero [1] = assay: cells; type: functional, cell-based; conditions: Chlorocebus sabaeus
Vero [2] = assay: cells; type: functional; conditions: Chlorocebus sabaeus
[3] = target: Dual specificity protein kinase CLK1 (Homo sapiens, UniProt P49759); assay: CLK1 kinase inhibitors, off-target check, dose response, selectivity assay for Dyrk1A inhibitor project, biochemical, cherry-picked samples (AID 588811)
Sequence of Dual specificity protein kinase CLK1 (P49759 whole entry): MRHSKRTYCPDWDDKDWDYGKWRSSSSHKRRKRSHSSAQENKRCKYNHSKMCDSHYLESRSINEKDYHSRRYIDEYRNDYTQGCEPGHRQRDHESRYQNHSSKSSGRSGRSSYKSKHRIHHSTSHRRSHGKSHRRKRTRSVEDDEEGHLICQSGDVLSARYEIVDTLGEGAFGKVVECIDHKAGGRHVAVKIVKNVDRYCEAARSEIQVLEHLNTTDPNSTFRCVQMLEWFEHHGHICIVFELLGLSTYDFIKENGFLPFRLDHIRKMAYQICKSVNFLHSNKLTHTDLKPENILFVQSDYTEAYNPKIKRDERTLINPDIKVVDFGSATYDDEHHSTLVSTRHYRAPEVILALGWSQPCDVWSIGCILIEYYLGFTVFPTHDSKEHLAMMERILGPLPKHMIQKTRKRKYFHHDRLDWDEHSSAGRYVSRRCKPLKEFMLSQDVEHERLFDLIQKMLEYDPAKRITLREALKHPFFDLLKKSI

[4] = target: ATP-dependent molecular chaperone HSP82 (Candida albicans (strain WO-1) (Yeast), UniProt C4YTQ8); assay: loss of DOC-induced GRE-beta-galactosidase reporter signal, dose response, Hsp90 inhibitor project, S. cerevisiae, luminescence (AID 2400); type: functional, cell-based;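 further: beta-galactosidase luminescence from glucocorticoid response element reporter as proxy for Hsp90 function; inhibitor potency where signal loss means Hsp90 inhibition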
Sequence of ATP-dependent molecular chaperone HSP82 (C4YTQ8 whole entry): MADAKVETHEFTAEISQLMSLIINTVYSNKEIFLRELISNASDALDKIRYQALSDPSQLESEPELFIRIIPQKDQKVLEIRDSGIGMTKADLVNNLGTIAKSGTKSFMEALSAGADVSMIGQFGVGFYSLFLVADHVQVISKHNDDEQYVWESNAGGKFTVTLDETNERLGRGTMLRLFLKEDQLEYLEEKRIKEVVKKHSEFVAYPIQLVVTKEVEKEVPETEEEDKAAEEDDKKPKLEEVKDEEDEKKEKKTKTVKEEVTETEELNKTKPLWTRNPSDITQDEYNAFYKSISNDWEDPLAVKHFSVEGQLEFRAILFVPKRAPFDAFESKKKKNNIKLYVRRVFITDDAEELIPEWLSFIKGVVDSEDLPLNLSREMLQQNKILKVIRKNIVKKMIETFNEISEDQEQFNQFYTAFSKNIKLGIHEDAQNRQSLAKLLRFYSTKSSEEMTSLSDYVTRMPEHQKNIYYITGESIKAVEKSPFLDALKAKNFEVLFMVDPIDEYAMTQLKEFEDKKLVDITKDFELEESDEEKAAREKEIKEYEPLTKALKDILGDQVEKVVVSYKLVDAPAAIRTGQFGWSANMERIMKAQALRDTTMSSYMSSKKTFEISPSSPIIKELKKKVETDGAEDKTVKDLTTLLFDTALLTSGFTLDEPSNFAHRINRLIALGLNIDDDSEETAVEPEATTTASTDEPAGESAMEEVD

[5] = NIH-3T3 fibroblast cytotoxicity, dose response, cytotoxicity control, cell-based, fluorescence, Alamar Blue, secondary assay (AID 2327); type: functional;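 further: NIH-3T3 mouse fibroblasts cultured with fluconazole at 8 µg/mL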
[6] = target: Serine/threonine-protein phosphatase (Candida dubliniensis (strain CD36 / CBS 7987 / NCPF 3949 / NRRLY-17841) (Yeast), UniProt B9W6M3); assay: calcineurin pathway inhibitors in yeast reporter, dose response, S. cerevisiae, CDRE-lacZ, luminescence, secondary (AID 2388); type: functional, cell-based;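 further: yeast reporter cells carrying a calcineurin-responsive lacZ construct stimulated with calcium chloride; luminescent beta-galactosidase reporter signal in whole cells rather than isolated phosphatase activity; potency for inhibition where a drop in reporter signal means calcineurin blockade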
[7] = C. albicans growth with fluconazole, confirmation, fluorescence, retest (AID 2467); type: functional, cell-based
Escherichia coli [8] = assay: microbe, parasite or virus in culture
Escherichia coli [9] = assay: microbe, parasite or virus in culture; remark: listed apart in the source
[10] = off-target signal loss in HeLa-CEM21 co-culture – HeLa F-luc CTL cells, cherry-picked, counter-screen for HIV-1 Env fusion inhibitor project, dose response (AID 652040); type: functional, cell-based;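 further: potency for signal decrease marking cytotoxic or nonspecific inhibition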
[11] = cytotoxicity in HEK-293T NF-kB-Luc cells, dose response, cytotoxicity control for B/T-cell NF-kB inhibitor project, cell-based, uHTS hits (AID 489019); type: functional;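 further: IC50 reflects cytotoxicity as loss of cell viability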
[12] = inhibitors of firefly luciferase expression or activity, dose response, H4 neuroglioma cells, luminescence (AID 1990); type: functional, cell-based
[13] = target: Glyceraldehyde-3-phosphate dehydrogenase (Homo sapiens, UniProt P04406)
Sequence of Glyceraldehyde-3-phosphate dehydrogenase (P04406 whole entry, the tested form may be a part): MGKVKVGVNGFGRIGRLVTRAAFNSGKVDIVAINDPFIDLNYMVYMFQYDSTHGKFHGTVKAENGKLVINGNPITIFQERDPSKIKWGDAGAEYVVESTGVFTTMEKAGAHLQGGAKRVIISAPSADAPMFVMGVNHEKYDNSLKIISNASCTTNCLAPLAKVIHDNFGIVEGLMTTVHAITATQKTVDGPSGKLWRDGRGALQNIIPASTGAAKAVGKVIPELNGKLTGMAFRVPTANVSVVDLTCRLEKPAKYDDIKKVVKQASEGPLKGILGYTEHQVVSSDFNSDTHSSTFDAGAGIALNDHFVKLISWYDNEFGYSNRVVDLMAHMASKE

[14] = inhibitors of HIV Env-driven cell fusion, dose response, cherry-pick (AID 652057); type: functional, cell-based
Jurkat [15] = assay: antigen receptor-induced NF-kB inhibitors, dose response, Jurkat, luciferase reporter, luminescence, B- and T-cell (AID 489004); type: functional, cell-based; conditions: Homo sapiens;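 further: NF-kB luciferase reporter Jurkat cells stimulated with PMA plus ionomycin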
[16] = Luminescence Cell-Based Dose Response HTS to Identify Inhibitors of 5'UTR Stem-Loop Driven Prion Protein mRNA Translation in H4 Neuroglioblastoma Cells. [Related pubchem assays: 1827 (Project Summary), 1813 (Primary HTS)]; type: functional
[17] = inhibitors of SNCA 5'UTR-driven translation, confirmation, luminescence, H4 neuroglioblastoma cells, dose confirmation (AID 2454); type: functional, cell-based;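 further: H4 neuroglioblastoma cells carrying an alpha-synuclein 5'UTR luciferase reporter; potency for inhibition of the luciferase signal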
[18] = target: Luciferin 4-monooxygenase (Photinus pyralis, UniProt P08659); assay: Counter Screen for Luciferase-based Assay Positives. [Related pubchem assays: 620, 618, 411 ]
HT-1080 = assay: cytotoxicity in HT1080 fibrosarcoma cells, cell-based, fluorescence readout (AID 620); type: functional; conditions: Homo sapiens
[19] = inhibitors of clade B AD8 Env fusion, dose response, cell-based, cherry-pick (AID 652062); type: functional;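 further: luciferase signal from cell-cell fusion driven by HIV-1 clade B AD8 Env; potency is for inhibitors of fusion seen as a drop in luminescence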
[20] = ZM109 Env clade C HIV-1 fusion inhibitors, dose response, HeLa effector, CEM target cells, luciferase, cherry-pick (AID 652058); type: functional, cell-based
[21] = luciferase reporter signal reduction – luminescence, H4-C neuroglioblastoma cells, dose response (AID 2458); type: functional, cell-based;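 further: H4 neuroglioblastoma cells stably carrying a luciferase reporter gene fusion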
[22] = inhibitors of SNCA 5'UTR-driven reporter translation, confirmation, H4 neuroglioma cells, luminescence (AID 1988); type: functional, cell-based
cells = type: functional, cell-based
[23] = target: Voltage-dependent T-type calcium channel subunit alpha-1H (Homo sapiens, UniProt O95180); type: functional;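 further: channel activity triggered by adding a high calcium stimulation buffer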
HEK293 [24] = assay: SAR Analysis of small molecule inhibitors of T-cell specific antigen receptor-induced NF-kB activation in a HEK-293T cell line using a luminescence assay - Set 2. [Related pubchem assays (depositor defined):AID435003, AID435012, AID489026]; type: functional, cell-based; conditions: Homo sapiens
Jurkat [25] = assay: SAR Analysis of small molecule inhibitors of T-cell specific antigen receptor-induced NF-kB activation in a Jurkat cell line using a luminescence assay - Set 2. [Related pubchem assays (depositor defined):AID435003, AID435012, AID465]; type: functional, cell-based; conditions: Homo sapiens
HEK293 [26] = assay: cytotoxicity in HEK293T NF-kB-Luc cells, SAR follow-up, cytotoxicity control for NF-kB activator project, cell-based, resazurin fluorescence (AID 493251); type: functional; conditions: Homo sapiens
Keap1/Nrf2 = Keap1/Nrf2 (Homo sapiens, UniProt Q14145); assay: Keap1-Nrf2 protein-protein interaction inhibitors, dose response, biochemical, fluorescence polarization, cherry-picked samples (AID 588683)
Sequence of Keap1/Nrf2 (Q16236 whole entry): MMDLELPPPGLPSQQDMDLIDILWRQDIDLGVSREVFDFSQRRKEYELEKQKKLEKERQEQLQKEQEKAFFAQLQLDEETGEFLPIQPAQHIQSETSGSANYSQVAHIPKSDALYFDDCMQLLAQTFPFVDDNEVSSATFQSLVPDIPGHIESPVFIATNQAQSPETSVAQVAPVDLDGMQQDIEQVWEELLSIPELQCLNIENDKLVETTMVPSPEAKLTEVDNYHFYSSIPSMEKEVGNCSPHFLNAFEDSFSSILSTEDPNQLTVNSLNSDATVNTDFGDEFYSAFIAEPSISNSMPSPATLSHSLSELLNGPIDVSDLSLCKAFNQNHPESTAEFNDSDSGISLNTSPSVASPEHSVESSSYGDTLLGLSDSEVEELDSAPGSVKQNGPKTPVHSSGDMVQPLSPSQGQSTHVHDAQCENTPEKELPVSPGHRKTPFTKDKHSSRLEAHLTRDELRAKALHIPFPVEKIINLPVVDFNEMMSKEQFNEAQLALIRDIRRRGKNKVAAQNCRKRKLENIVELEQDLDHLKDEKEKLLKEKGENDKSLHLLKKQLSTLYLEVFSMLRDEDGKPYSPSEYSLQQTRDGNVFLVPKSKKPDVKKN
Sequence of Keap1/Nrf2 (Q14145 whole entry): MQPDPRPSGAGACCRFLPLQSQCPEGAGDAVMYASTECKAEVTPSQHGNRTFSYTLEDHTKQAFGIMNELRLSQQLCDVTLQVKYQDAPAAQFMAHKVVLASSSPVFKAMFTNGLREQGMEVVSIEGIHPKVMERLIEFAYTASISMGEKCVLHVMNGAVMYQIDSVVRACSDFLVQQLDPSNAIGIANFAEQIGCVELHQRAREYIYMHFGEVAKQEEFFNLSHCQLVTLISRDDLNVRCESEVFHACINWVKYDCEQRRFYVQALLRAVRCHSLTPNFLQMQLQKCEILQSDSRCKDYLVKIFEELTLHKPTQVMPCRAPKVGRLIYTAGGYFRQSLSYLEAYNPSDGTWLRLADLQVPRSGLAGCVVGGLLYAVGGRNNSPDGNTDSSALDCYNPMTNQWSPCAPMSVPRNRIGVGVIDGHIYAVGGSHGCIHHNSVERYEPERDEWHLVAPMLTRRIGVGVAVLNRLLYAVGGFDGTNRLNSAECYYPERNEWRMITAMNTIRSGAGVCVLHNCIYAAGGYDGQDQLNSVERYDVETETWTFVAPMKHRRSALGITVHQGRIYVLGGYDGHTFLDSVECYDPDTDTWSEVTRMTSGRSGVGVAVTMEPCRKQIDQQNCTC

ORF 73 = ORF 73 (Human herpesvirus 8, UniProt O40947); assay: inhibitors of C-LANA binding to LBS DNA, dose response, biochemical, fluorescence polarization, cherry-picked samples (AID 504725); design: species or system Human gammaherpesvirus 8;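 further: fluorescence polarization of a labeled DNA duplex reporting LANA DNA binding; potency is for inhibitors that block LANA binding to the DNA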
Sequence of ORF 73 (O40947 whole entry): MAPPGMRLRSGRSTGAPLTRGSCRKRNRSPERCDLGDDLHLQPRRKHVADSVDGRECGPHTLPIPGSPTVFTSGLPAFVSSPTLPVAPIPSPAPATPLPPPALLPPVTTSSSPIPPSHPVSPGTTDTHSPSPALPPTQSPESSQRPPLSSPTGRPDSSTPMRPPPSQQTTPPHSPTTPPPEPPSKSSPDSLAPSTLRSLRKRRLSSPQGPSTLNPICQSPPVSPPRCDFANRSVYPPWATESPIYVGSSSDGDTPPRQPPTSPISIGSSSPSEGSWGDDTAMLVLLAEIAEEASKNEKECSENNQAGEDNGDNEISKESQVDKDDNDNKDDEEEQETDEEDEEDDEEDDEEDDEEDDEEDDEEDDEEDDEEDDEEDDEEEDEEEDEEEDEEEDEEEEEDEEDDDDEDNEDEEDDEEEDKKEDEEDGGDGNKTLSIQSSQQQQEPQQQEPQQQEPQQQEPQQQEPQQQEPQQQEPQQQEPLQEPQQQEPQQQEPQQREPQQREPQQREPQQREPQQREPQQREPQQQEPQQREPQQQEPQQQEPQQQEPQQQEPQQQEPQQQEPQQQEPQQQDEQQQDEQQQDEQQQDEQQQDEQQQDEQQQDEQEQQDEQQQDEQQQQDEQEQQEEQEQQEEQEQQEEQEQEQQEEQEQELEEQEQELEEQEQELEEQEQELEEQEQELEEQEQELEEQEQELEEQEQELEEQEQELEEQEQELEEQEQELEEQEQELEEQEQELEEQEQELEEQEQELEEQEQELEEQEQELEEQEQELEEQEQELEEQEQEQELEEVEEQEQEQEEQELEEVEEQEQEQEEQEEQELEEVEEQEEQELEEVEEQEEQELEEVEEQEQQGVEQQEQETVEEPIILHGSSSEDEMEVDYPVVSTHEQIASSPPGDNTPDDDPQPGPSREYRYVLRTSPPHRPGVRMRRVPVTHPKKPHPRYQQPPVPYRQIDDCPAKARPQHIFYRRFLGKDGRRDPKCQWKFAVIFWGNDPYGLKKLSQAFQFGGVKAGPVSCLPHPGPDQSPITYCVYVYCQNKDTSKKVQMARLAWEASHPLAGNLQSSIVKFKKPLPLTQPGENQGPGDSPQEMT

[27] = target: T1, Corticotropin-releasing factor receptor 2/Corticotropin-releasing factor-binding protein (Homo sapiens, UniProt P24387+Q13324); assay: activators of CRF receptor 2 with binding protein – uHTS hits, confirmation (AID 602473); type: functional; conditions: read-out: EC50_Mean
T1 sequence (Q13324 whole entry): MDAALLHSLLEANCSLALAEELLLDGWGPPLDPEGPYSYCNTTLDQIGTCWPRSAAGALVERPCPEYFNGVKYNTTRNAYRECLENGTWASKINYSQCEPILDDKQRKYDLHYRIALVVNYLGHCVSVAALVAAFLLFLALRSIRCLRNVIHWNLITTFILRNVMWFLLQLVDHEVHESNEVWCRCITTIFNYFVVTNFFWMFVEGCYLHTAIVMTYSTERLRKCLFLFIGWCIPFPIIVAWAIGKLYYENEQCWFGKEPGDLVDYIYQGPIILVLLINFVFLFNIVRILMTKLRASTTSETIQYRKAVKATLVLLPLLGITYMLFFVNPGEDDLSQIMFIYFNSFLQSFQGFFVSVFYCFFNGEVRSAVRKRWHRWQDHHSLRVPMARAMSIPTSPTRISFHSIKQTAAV
T1 sequence (P24387 whole entry): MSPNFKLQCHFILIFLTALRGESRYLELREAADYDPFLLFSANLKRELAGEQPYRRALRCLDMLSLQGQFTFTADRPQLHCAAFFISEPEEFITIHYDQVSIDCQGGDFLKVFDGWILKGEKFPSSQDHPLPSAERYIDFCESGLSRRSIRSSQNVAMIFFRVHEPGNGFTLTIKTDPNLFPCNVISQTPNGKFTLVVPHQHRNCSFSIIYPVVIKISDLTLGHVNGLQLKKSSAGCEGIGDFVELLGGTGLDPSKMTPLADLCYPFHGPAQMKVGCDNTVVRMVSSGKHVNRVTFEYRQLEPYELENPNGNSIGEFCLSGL

[28] = target: Eukaryotic translation initiation factor 4E (Mus musculus, UniProt P63073); assay: eIF4E–eIF4G protein interaction inhibitors, dose response, biochemical, TR-FRET (AID 855); type: functional;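 further: potency for disrupting eIF4E binding to eIF4GI seen as loss of FRET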
Sequence of Eukaryotic translation initiation factor 4E (P63073 whole entry): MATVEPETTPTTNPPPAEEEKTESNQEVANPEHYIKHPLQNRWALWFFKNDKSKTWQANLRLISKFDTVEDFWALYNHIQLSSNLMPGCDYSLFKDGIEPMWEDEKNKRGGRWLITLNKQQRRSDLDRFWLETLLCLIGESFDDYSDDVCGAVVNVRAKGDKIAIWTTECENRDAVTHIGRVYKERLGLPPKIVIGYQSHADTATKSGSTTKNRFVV

HeLa = assay: HeLa cell cytotoxicity, dose response, cytotoxicity control, 24 h, cherry-picked samples (AID 504726); type: functional, cell-based; conditions: Homo sapiens;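 further: potency for cytotoxicity as loss of luminescence signal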
[29] = Luminescence Cell-Based Dose Retest to Confirm Inhibitors of Cancer Stem Cells. [Related pubchem assays (depositor defined):AID2717, AID2721]; type: functional; conditions: Homo sapiens
Paired box protein Pax-8 = Paired box protein Pax-8 (Homo sapiens, UniProt Q06710); assay: inhibitors of PAX8-driven TPO luciferase reporter, dose response, RMG-I cells, cherry-pick (AID 687027); type: functional, cell-based;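 further: luciferase reporter driven by Pax8 target thyroperoxidase promoter measured by SteadyGlo luminescence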
Sequence of Paired box protein Pax-8 (Q06710 whole entry): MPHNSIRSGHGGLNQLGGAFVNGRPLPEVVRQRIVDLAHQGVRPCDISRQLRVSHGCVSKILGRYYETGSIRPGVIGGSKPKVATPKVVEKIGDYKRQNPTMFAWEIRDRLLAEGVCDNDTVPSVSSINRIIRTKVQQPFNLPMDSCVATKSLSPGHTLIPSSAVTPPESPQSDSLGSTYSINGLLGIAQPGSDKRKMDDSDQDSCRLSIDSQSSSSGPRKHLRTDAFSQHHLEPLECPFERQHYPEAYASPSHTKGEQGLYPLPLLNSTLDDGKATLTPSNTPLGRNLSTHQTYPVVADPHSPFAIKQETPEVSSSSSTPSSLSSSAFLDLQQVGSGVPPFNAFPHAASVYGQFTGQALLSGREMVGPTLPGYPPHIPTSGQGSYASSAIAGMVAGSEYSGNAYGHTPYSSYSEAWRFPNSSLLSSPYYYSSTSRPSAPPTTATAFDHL

[30] = control 3'UTR Renilla luciferase suppression, dose response, counter-screen for Shn3 inhibitor project, cell-based, Clone20-Shn3RL, cherry-picked (AID 624133); type: functional
[31] = Shn3 3'UTR reporter inhibitors, dose response, cell-based, Clone20 osteoblasts, firefly luciferase, cherry-picked (AID 624132); type: functional;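 further: firefly luciferase luminescence from reporter carrying the Shn3 3'UTR in osteoblasts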
[32] = Fluorescence-based cell-based high throughput dose response assay for inhibitors of the interaction of nucleotide-binding oligomerization domain containing 2 (NOD2) and the receptor-interacting serine-threonine kinase 2 (RIPK2).; type: functional; conditions: Homo sapiens
[33] = HepG2 cell cytotoxicity, dose response, cytotoxicity control for Shn3 inhibitor project, CellTiter-Glo, cherry-picked (AID 624134); type: functional, cell-based
Beta Lactamase = Beta Lactamase (Pseudomonas aeruginosa, UniProt Q932Y6); assay: beta-lactamase reporter inhibitor potency, dose response, artefact control for NOD2-RIPK2 interaction inhibitor project, BLA reporter cells, FRET fluorescence (AID 651552); type: functional, cell-based
Sequence of Beta Lactamase (Q932Y6 whole entry): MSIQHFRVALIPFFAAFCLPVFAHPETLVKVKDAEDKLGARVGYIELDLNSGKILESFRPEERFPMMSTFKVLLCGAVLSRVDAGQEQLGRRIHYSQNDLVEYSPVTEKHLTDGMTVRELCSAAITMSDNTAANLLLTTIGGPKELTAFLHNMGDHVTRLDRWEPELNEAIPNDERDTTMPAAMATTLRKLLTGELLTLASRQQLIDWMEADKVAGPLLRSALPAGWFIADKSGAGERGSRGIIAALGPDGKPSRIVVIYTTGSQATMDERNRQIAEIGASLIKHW

O=C(c1cccs1)N(Cc1nc(O)c2c3c(sc2n1)CCCC3)C1CCCC1
IC50 (Vero [1]): 13.4 µM (active)
CC50 (Vero [2]): > 25 µM (active)

CCOC(=O)c1ccc(-c2ccc3ncnc(NCc4ccc(C)o4)c3c2)o1
AC50 [3]: 2.72 nM (active) and 93.6 nM (active)

O=C(CC(=O)c1cccc([N+](=O)[O-])c1)Nc1ccccc1Cl
EC50 [4]: > 160 µM (inactive)
EC50 [5]: > 150 µM (inactive)
EC50 [6]: > 180 µM (inactive)
EC50 [7]: 0.524 µM (active)

CC(C)N1CCC(N2CCN(C3CCCCC3)CC2CCO)CC1 (centres undefined)
AC50 (Escherichia coli [8]): 16.8 µM (active)
AC50 (Escherichia coli [9]): 97 µM (active)

COC(=O)CCn1nnc(-c2ccc(C(C)C)cc2)n1
AC50 [10]: < 0.26 µM (active)
IC50 [11]: > 80 µM (inactive)
EC50 [12]: < 0.1 µM (active)
IC50 [13]: > 100 µM (not active)
AC50 [14]: < 0.26 µM (active)
IC50 (Jurkat [15]): < 0.16 µM (active)
EC50 [16]: < 0.1 µM (active)
EC50 [17]: 0.373 µM (active)
EC50 [18]: 2.39 µM (active)
EC50 (HT-1080): > 50 µM (not active)
AC50 [19]: 0.379 µM (active)
AC50 [20]: < 0.26 µM (active)
EC50 [21]: 0.251 µM (active)
EC50 [22]: < 0.1 µM (active)
EC50 (cells): 0.477 µM (active)
EC50 [23]: 16.2 µM (active)

Cc1ccc2nsnc2c1NC(=O)c1ccc([N+](=O)[O-])o1
IC50 (HEK293 [24]): 37.9 µM (inactive)
IC50 (Jurkat [25]): 22.7 µM (inactive)
IC50 (HEK293 [26]): > 80 µM (inactive)

CCCN(CCC)S(=O)(=O)c1ccc(C(=O)OCCN2C(=O)c3cccc4c(N5CCOCC5)ccc(c34)C2=O)cc1
AC50 (Keap1/Nrf2): 7.75 µM (active)
AC50 (ORF 73): 21.4 µM (active)
EC50 [27]: 6.32 µM (active)
IC50 [28]: > 64 µM (inactive)
AC50 (HeLa): 57.8 µM (active)

C[C@@H]1O[C@@H](O[C@@H]2C=C3CCC4C(CC[C@]5(C)[C@@H](c6ccc(=O)oc6)CC[C@]45O)[C@@]3(C)CC2)[C@H](O)[C@H](O)[C@H]1O (some centres undefined)
AC50 [29]: < 0.16 µM (active)
IC50 [11]: > 80 µM (inactive)
IC50 (Jurkat [15]): 1.66 µM (active)
CC50 (Vero [2]): < 0.05 µM (active)
AC50 (Paired box protein Pax-8): < 0.26 µM (active)

COc1ccc2nc3ccccc3[n+]([O-])c2c1
AC50 (Keap1/Nrf2): 8.81 µM (active)
AC50 (ORF 73): 30.8 µM (active)
EC50 [27]: 18.1 µM (active)
AC50 (HeLa): 119 µM (active)

O=C(/C=C1\C(=O)Nc2ccccc21)/C=C1\C(=O)Nc2ccccc21
IC50 (Vero [1]): > 25 µM (active)
AC50 [30]: 11.7 µM (active)
AC50 [31]: 9.5 µM (active)
IC50 [32]: 1.55 µM (active)
AC50 [33]: 64.7 µM (active)
CC50 (Vero [2]): 20 µM (active)
IC50 (Beta Lactamase): 28.6 µM (inactive)

COc1ccc(NC(=O)C/C(C)=N/NC(=O)C(=O)Nc2cccc(Cl)c2C)c(OC)c1
AC50 (Escherichia coli [8]): 51.6 µM (active)
AC50 (Escherichia coli [9]): 16.3 µM (active)

CC(C)c1ccc(C(NC(=O)C2CCCCC2)c2ccc3cccnc3c2O)cc1 (centres undefined)
IC50 (HEK293 [24]): 4.61 µM (active)
IC50 (Jurkat [25]): 2.94 µM (active)
IC50 (HEK293 [26]): 44.9 µM (inactive)
